Test results as given in US20240109914A1, “IMIDAZOTHIAZOLE COMPOUNDS AND ANALOGS THEREOF AND METHODS FOR TREATING NEMATODE INFECTIONS IN PLANTS” (The Governing Council of The University of Toronto, priority 2021, published 2024).
Read-outs that look alike come from different tables or passages of the source.

Experiments:
[1] = system: M. hapla eggs; test: Meloidogyne hapla in vitro egg hatch assay; assay type: in vivo; conditions: 45 μM; for Number of Hatched Eggs: 8 days at room temperature, about 90 eggs per well, tested once; for Number of Hatched Eggs z-score: 8 days, z-score vs 8 untreated DMSO wells
Experimental: The M. hapla were originally obtained from a soil sample of muck soil from Ste-Clotilde, Quebec, Canada. Using tweezers, egg masses were carefully removed from root material from infested carrot roots. Eggs were liberated from the egg masses using a mild sodium hypochlorite bleaching protocol, whereby egg masses were bleached with a 10% commercial bleach (sodium hypochlorite) solution for 4 minutes with vigorous shaking, and then washed 5 times with deionized water. 50 μL of deionized water was added to each well of two 96-well polystyrene culture plates, and 0.5 μL of chemical (or DMSO alone) was added to each well. Approximately 90 eggs were added to each well in 49.5 ul of deionized water. The plates were sealed with parafilm and incubated for 8 days at room temperature without shaking in a Tupperware box filled with wet paper towels. After the 8-day incubation, the number of hatched eggs was counted for each treatment and for the untreated controls. Each chemical treatment was tested only once. 8 separate untreated DMSO controls were included in the experiment. The z-score for each treatment was calculated using the mean and standard deviation of the untreated DMSO control wells.

[2] = system: M. incognita J2 larvae; test: Meloidogyne incognita in vitro larval mobility assay; assay type: in vivo; conditions: for Replicate 1 z-score / Replicate 2 z-score: z-score vs untreated DMSO wells; for pest or weed control at 45 µM: Meloidogyne incognita, 96 h
Experimental: M. incognita (Kofoid & White) Chitwood Race 1 (originally isolated in Maryland) was used for all experiments, and was maintained on pepper (Capsicum annuum L.) cv. PA-136 in a greenhouse as previously described^44. Infective J2 juveniles were collected as described in ref. 45. The microwell dose-response experiments were carried out similarly to previously described protocols^44,46. In brief, 50 μL of deionized water was added to the wells of 96-well polystyrene plates and 0.5 μL of test compound (or DMSO alone) was added to each well. Approximately 35 J2s were then added to each well in 49.5 μL of deionized water. The chemicals were tested at 45 μM, and the final concentration of DMSO in each well was 0.5% (v/v). DMSO alone was added to 3 separate wells. The plates were covered with plastic adhesive strips, and the lids of the plates were sealed with parafilm. The plates were incubated at 25° C. without shaking for 4 days. The percent of worms that were immobile (% immobile) was quantified by counting the number of immobile worms after 4 days of incubation, dividing the number of immobile worms by the total number of worms in the well, and then multiplying by 100. Two replicates were performed for each treatment. The z-score for each treatment was calculated using the mean and standard deviation of the untreated DMSO control wells. The average % immobile value was calculated across the two replicates. A test compound was considered most promising if the z-score was greater than 1.645 in both replicates.

[3] = 45 μM, 4 days, replicate 1, read-out: Replicate 1 % Immobile
[4] = 45 μM, 4 days, replicate 2, read-out: Replicate 2 % Immobile
[5] = 45 μM, 4 days, average of the two replicates, read-out: Average % Immobile

Compound | Number of Hatched Eggs [1] | Number of Hatched Eggs z-score [1] | Replicate 1 z-score ([2]; 45 μM, 4 days, replicate 1) | Replicate 2 z-score ([2]; 45 μM, 4 days, replicate 2) | pest or weed control at 45 µM [2, 3] [%] | pest or weed control at 45 µM [2, 4] [%] | pest or weed control at 45 µM [2, 5] [%] | other results
Clc1ccc(-c2cn3c(n2)SCC3)cc1 [I-49] | 2 | [3.97] | [15.80] | [16.33] | 100 | 100 | – | –
CCOc1ccc(-c2nc3sccn3c2C=O)cc1 [I-154] | 0 | [4.63] | [10.40] | [16.33] | 73.6 | 100 | ≥ 75 | Number of Hatched Eggs ([1]; listed as 1-154): completely inhibited egg hatching
Cc1cn2cc(-c3ccc(N)cc3)nc2s1 [I-132] | 3 | [3.64] | – | – | – | – | – | –
Cc1csc2nc(-c3ccc(OC(F)F)cc3)cn12 [I-64] | 4 | [3.31] | – | – | – | – | – | –
Cc1csc2nc(-c3ccc(OC(F)(F)F)cc3)cn12 [I-62] | 3 | [3.64] | – | – | – | – | – | –
CC(C)NC(=O)N1CC(=O)N(c2cc(Cl)cc(Cl)c2)C1=O [Iprodione, iprodione, reference compound] | 15 | [−0.33] | [−0.02] | [1.71] | 10.9 | 16.7 | 13.8 | –
Cc1sc2nc(-c3ccc(Cl)s3)cn2c1C [I-86] | 4 | [3.31] | – | – | – | – | – | –
CCOC(=O)c1ccc(-c2cn3ccsc3n2)cc1 [I-72] | 4 | [3.31] | – | – | – | – | – | –
Cc1nn2cc(-c3ccc(Cl)cc3)nc2s1 [I-158] | – | – | [3.12] | [8.51] | 37.9 | 56.8 | 47.4 | –
FC(F)(F)Oc1ccc(-c2cn3ccsc3n2)cc1 [I-61] | 1 | [4.30] | [8.86] | [6.94] | 66 | 48.1 | 57.1 | –
O=Cc1c(-c2ccc(F)cc2)nc2sccn12 [I-157] | – | – | [15.40] | [15.24] | 98 | 94 | – | –
Cc1csc(-c2cn3cc(C)sc3n2)c1 [I-161] | 0 | [4.63] | – | – | – | – | – | Number of Hatched Eggs ([1]; listed as 1-161): completely inhibited egg hatching
FC(F)Oc1ccc(-c2cn3ccsc3n2)cc1 [I-63] | 2 | [3.97] | [15.80] | [16.33] | 100 | 100 | – | –
N#Cc1ccc(-c2cn3ccsc3n2)cc1 [I-87] | 3 | [3.64] | [6.98] | [9.68] | 56.9 | 63.3 | 60.1 | –
COc1c(-c2cn3ccsc3n2)ccc2ccccc12 [I-81] | 3 | [3.64] | – | – | – | – | – | –
CNC(=O)O/N=C(\SC)C(=O)N(C)C [Oxamyl, oxamyl, reference compound] | 9 | [1.65] | [9.35] | [13.88] | – | – | – | pest or weed control at 45 µM ([2]; read-out: Average % Immobile): 66.9%; pest or weed control at 45 µM ([2]; read-out: Replicate 1 % Immobile): 67.2%; pest or weed control at 45 µM ([2]; read-out: Replicate 2 % Immobile): 66.7%
COCc1nn2cc(-c3ccc(Cl)cc3)nc2s1 [I-144] | 4 | [3.31] | [4.17] | [6.85] | 43.1 | 47.6 | 45.4 | –
Cc1ccc(-c2nc3sccn3c2C=O)cc1 [I-152] | – | – | [15.80] | [14.75] | 100 | 91.3 | – | –
Fc1ccccc1-c1cn2ccsc2n1 [I-89] | 3 | [3.64] | [10.62] | [12.27] | 74.7 | 77.6 | ≥ 75 | –
Nc1c(-c2ccccc2)nc2sccn12 [I-128] | – | – | [11.92] | [13.69] | 81 | 85.5 | ≥ 75 | –

Compound | Number of Hatched Eggs [1] | Number of Hatched Eggs z-score [1] | Replicate 1 z-score ([2]; 45 μM, 4 days, replicate 1) | Replicate 2 z-score ([2]; 45 μM, 4 days, replicate 2) | pest or weed control at 45 µM [2, 3] [%] | pest or weed control at 45 µM [2, 4] [%] | pest or weed control at 45 µM [2, 5] [%] | other results
COc1ccc(-c2nc3scc(C)n3c2C=O)cc1 [I-135] | 4 | [3.31] | – | – | – | – | – | –
Cc1csc2nc(-c3ccc(Cl)s3)cn12 [I-85] | 4 | [3.31] | – | – | – | – | – | –
Cc1cn2cc(-c3ccc(OC(F)(F)F)cc3)nc2s1 [I-53] | – | – | [3.33] | [6.79] | 39 | 47.3 | 43.1 | –
c1ccc(-c2nc3sccn3n2)cc1 [I-116] | 2 | [3.97] | [4.40] | [2.43] | 44.2 | 23.2 | 33.7 | –
c1ccc2cc(-c3cn4ccsc4n3)ccc2c1 [I-101] | 2 | [3.97] | – | – | – | – | – | –
FC(F)(F)c1ccc(-c2cn3ccsc3n2)cc1 [I-68] | 4 | [3.31] | – | – | – | – | – | –
COCc1nn2cc(-c3ccc(C)c(C)c3)nc2s1 [I-109] | 4 | [3.31] | – | – | – | – | – | –
O=Cc1c(-c2ccc(Cl)cc2)nc2sccn12 [I-93] | – | – | [15.80] | [12.15] | 100 | 76.9 | ≥ 75 | –
COc1ccc(-c2cn3ccsc3n2)cc1 [I-142] | – | – | [2.76] | [1.68] | 36.2 | 19.1 | 27.6 | –
Nc1c(-c2ccc(Br)cc2)nc2sccn12 [I-118] | 2 | [3.97] | – | – | – | – | – | –
COCc1nn2cc(-c3ccc(F)cc3)nc2s1 [I-141] | – | – | [1.89] | [4.06] | 31.9 | 32.2 | 32.1 | –
Brc1nn2cc(-c3ccccc3)nc2s1 [I-159] | – | – | [15.34] | [16.33] | 97.8 | 100 | – | –
Cc1cn2cc(-c3cccs3)nc2s1 [I-78] | 3 | [3.64] | – | – | – | – | – | –
O=C(O)c1cn2cc(-c3ccccc3)nc2s1 [I-94] | 4 | [3.31] | – | – | – | – | – | –
COCc1nn2cc(-c3cccc(OC)c3)nc2s1 [I-108] | 4 | [3.31] | – | – | – | – | – | –
CCc1nn2cc(-c3ccc(C)cc3C)nc2s1 [I-129] | – | – | [2.18] | [1.78] | 33.3 | 19.6 | 26.5 | –
Cc1cn2cc(-c3ccc(OC(F)F)cc3)nc2s1 [I-54] | – | – | [1.73] | [2.15] | 31.1 | 21.7 | 26.4 | –
CCOc1ccc(-c2cn3ccsc3n2)cc1 [I-153] | 2 | [3.97] | – | – | – | – | – | –
Fc1ccc(-c2cn3nc(Br)sc3n2)cc1 [I-113] | – | – | [15.80] | [15.32] | 100 | 94.4 | – | –
